Measurements published in patent US20200023001A1, “GlycoFix (Structurally And Functionally Repaired Endothelial Glycocalyx)” (Northeastern University, priority 2018, published 2020).
Several values for one entry are separate records, joined by “and”; a condition that tells them apart may be missing. Identical values can stand only once.

How the values were obtained:
Cx43 at RFPEC borders = test: Cx43 expression at EC borders, immunostaining and confocal microscopy; format: cell-based, rat
Protocol: (§1) Cell Culture. Rat fat pad ECs (RFPEC) at passages 20 to 39 were offspring of cells isolated from rat epididymal fat pad and provided by Dr. Mia Thi of Albert Einstein College of Medicine (Bronx, N.Y.). […] The RFPECs are immortalized, making it possible to use late passages. RFPEC were seeded on 12-14-mm diameter and 0.13-0.17-mm thick glass coverslips at a seeding density of 15,000-20,000 cells/cm^2. Cells were cultured in Dulbecco's Modified Eagle Medium (DMEM, Invitrogen, USA) with 1% penicillin-streptomycin (PS) and 10% fetal bovine serum (FBS, Gibco Life Technologies). Cells were maintained in humidity at 37° C. and 5% CO2. RFPECs reached full confluence in 3 days.
(§2) Cultured RFPECs produce thick and robust GCX in this time period. At 3 days post-seeding the RFPECs' culture medium was supplemented with 1% BSA in place of FBS to stabilize the GCX during preservation and immunolabeling (described below). For enzyme treatment experiments, 25 micro-international units per milliliter (μIU/ml) of heparinase III (Hep III; IBEX, Canada) were added to BSA-containing culture media for 2 hours to degrade HS from the GCX [46]. HepIII was washed out, and the wash-out was followed by a 16-hour incubation of RFPECs in regular BSA-containing media. In self-recovery experiments, RFPEC GCX was left to recover for 24 hours after enzyme degradation. The time frame was chosen in accordance with the 20-hour time period that is required for HS restoration to occur on the surface of ECs. For HS recovery experiments, exogenous HS and/or S1P were applied for 16 hours to accommodate the communication test as an assessment of functional glycocalyx recovery. […] After HS was degraded with HepIII, it was replaced by a 16-hour feeding of RFPECs with 59 μg/ml exogenous porcine mucosal HS (Celsus, Cincinnati, Ohio), based on published serum concentration of HS [43]. In sphingosine-1-phosphate experiments, culture media containing enzyme was substituted for media containing either 10 μM of S1P (Sigma-Aldrich) or a combination of 59 μg/ml of HS and 10 μM of S1P for 16 hours after enzyme degradation.
As specified by the manufacturer, the HS antibody reacts with many types of heparan sulfate. The reactivity of the HS antibody is abolished after treatment with Hep III, indicating antibody specificity. For secondary detection of HS, Alexa Flour 488 conjugated goat anti-mouse IgG/IgM (H+L; Life Technologies) secondary antibody was used. RFPECs to be processed for connexin 43 (Cx43) were fixed in 4% paraformaldehyde, permeabilized in 0.2% Triton X-100 (Fisher), and blocked in 5% goat serum combined with 0.2% Triton X-100. Connexin 43 staining was performed overnight at 4° C. with 1:100 mouse monoclonal Cx43 antibody (Millipore). […] Secondary Cx43 detection was done with Alexa Flour 488 conjugated goat anti-mouse IgG. […] These controls confirmed that the staining observed in the RFPECs is not an artefact.
Confocal immunofluorescence microscopy imaging and analysis. Alexa Fluor 488 fluorescent RFPECs were mounted with Vectashield containing DAPI (Vector Labs) and imaged with a Zeiss LSM 700 laser scanning confocal microscope. HS and Cx43 were imaged at 63× magnification (oil objective) and 40× magnification (oil objective), respectively. Lasers with excitation wavelengths of 490 nm (for HS or Cx43) and 350 nm (for DAPI) were used to obtain XY-plane slices. Laser gain and transmission were kept below fluorophore saturation levels. Confocal slice intervals were 0.2 μm for HS and 0.7 μm for Cx43. […]

[1] = test system: heparan sulfate (HS) of RFPEC glycocalyx; test: HS expression (coverage) in RFPEC glycocalyx by immunofluorescence confocal microscopy (Example 1); format: cell-based, rat
Protocol: as §1, §2
Immunostaining. RFPECs have high affinity to most antibodies that are available for performing immunocytochemistry. For heparan sulfate (HS), RFPEC monolayers were treated with 2% paraformaldehyde/1% glutaraldehyde in phosphate buffered saline (PBS) for fixation, treated with 2% goat serum in PBS to block non-specific ligands, and stained for three nights at 4° C. with a 1:100 10E4-epitope HS antibody (Amsbio).
As specified by the manufacturer, the HS antibody reacts with many types of heparan sulfate. The reactivity of the HS antibody is abolished after treatment with Hep III, indicating antibody specificity. […]

**Q.** With heparan sulfate [HS] as the substance, how does the “Cx43 distribution along the perimeter of the cells” value (Cx43 at RFPEC borders; RFPEC, Hep III, then 16 h with or without 59 μg/ml HS and/or 10 μM S1P, mean±SEM) read?
**A.** 46% and 46.45±4.21%

**Q.** And the “Cx43 distribution/expression, result in words (FIG. 3 legend)” value (Cx43 at RFPEC borders; after Hep III, HS 59 μg/ml, S1P 10 μM)?
**A.** partially restored

**Q.** What about the “Cx43 recovery at cell borders, % of baseline conditions” value (Cx43 at RFPEC borders; treatment after enzymatic HS degradation) of the same substance?
**A.** approximately 80%

**Q.** And the “HS expression in GCX, result in words (FIG. 2 legend)” value ([1]; 25 μIU/ml Hep III, HS 59 μg/ml, S1P 10 μM)?
**A.** significant recovery of HS back to baseline conditions

**Q.** What about the “HS coverage of cell surfaces” value ([1]; RFPEC, Hep III 2 hours, probed 16 hours after, with or without 59 μg/ml exogenous HS and/or 10 μM S1P for the 16 hours, mean±SEM) of the same substance?
**A.** 65.58±2.26%
